Measurements reported in US20230391729A1, “SUCCINATE SALTS OF N-(3-(4-(3-(DIISOBUTYLAMINO)PROPYL)PIPERAZIN-1-YL)PROPYL)-1H-BENZO[D]IMIDAZOL-2-AMINE, PREPARATION THEREOF AND USE OF THE SAME” (ALZPROTECT, priority 2020, published 2023).

Experiments:
α-syn aggregation [1] = test: α-synuclein aggregation in TH(+) neurons after rotenone injury; type: cell-based, rat; settings: rotenone 10 nM 24 h
Method: (§1) Rat dopaminergic neurons were cultured as described by Visanji et al. in FASEB J. 2008, 22(7): 2488-2497 and Callizot et al., in Plos One 2019: https://doi.org/10.1371/journal.pone.0215277. Briefly, pregnant female rat (Wistar) of 15 days of gestation were killed using a deep anesthesia with CO2 chamber and a cervical dislocation. The midbrains obtained from 15-day-old rat embryos (Janvier, France) were dissected under a microscope. The embryonic midbrains were removed and placed in ice-cold medium of Leibovitz (L15) containing 2% of Penicillin-Streptomycin (PS) and 1% of BSA. The ventral portion of the mesencephalic flexure, a region of the developing brain rich in dopaminergic neurons, were used for the cell preparations. The midbrains were dissociated by trypsinization for 20 min at 37° C. (solution at a final concentration of 0.05% trypsin and 0.02% EDTA). The reaction was stopped by the addition of DMEM containing DNAase I grade II (0.5 mg/mL) and 10% of FCS. […] Viable cells were counted in a Neubauer cytometer using the trypan blue exclusion test. […]
(§2) The following read-outs were investigated: • neuron survival: total number of TH neurons (TH staining), • neurite network: total length of neurite network of TH positive neurons (in μm) • α-syn aggregation (area of overlapping between TH and α-syn staining in μm^2) […]

α-syn aggregation [2] = test: α-synuclein aggregation in TH(+) neurons after MPP+ injury; type: cell-based, rat; settings: MPP+ 4 μM 48 h
Method: as §1, §2

[3] = 7-day stability tests of the salt (XRPD, HPLC purity); type: physicochemical; settings: for Purity (%) by HPLC after 7-day stability test: 7 days
Method: 7-day stability tests were carried out as follows: 15 mg of salt was weighed into x3 2 mL vials. The vials were then placed at 40° C./75% RH, 80° C. and under ambient light; after 1 week, the solids were analysed by XRPD and HPLC purity (method A).

N-(3-(4-(3-(diisobutylamino)propyl)piperazin-1-yl)propyl)-1H-benzo[d]imidazol-2-amine sesqui-succinate salt [sesqui-succinate salt Form 1]
α-syn aggregation (α-syn aggregation [1]; 100 nM co-administered): prevented | α-syn aggregation (α-syn aggregation [1]; pre-incubated or applied directly with rotenone, 10 to 100 nM): significantly reduced | α-syn aggregation (α-syn aggregation [2]; coincubation, 50 or 100 nM): significantly reduced | α-syn aggregation (α-syn aggregation [2]; pre-incubation, all tested concentrations): significantly reduced | XRPD crystallinity or form after 7-day stability tests ([3]; 40° C./75% RH, 80° C. and ambient light): no change to crystallinity or form | Purity (%) by HPLC after 7-day stability test ([3]; 40° C./75% RH): 98.5% | Purity (%) by HPLC after 7-day stability test ([3]; 80° C.): 98.3% | Purity (%) by HPLC after 7-day stability test ([3]; Ambient Light): 98.4% | change in HPLC purity after 7-day stability test ([3]; each stability condition): no change in purity
